Experimental data published in patent US20250223268A1, “4-Methylsulfonylbenzamide Compound, Preparation Method, Herbicidal Composition And Use” (Jiangsu Flag Chemical Industry Co., Ltd., priority 2022, published 2025).

Key:
Test in all cases: Greenhouse herbicidal activity assay, post-emergence
Type in all cases: in vivo
Eclipta prostrata = conditions: Post-emergence test, rate 150 g a.i./hm^2, grade by fresh weight inhibition rate
Description: (§1) Post-emergence: Seeds of gramineous weeds (Echinochloa crusgalli, Echinochloa crusgalli var. zelayensis, Echinochloa phyllopogon, Eleusine indica, Digitaria sanguinalis, Leptochloa chinensis, Setaria viridis, Alopecurus japonicus Steud, Beckmannia syzigachne, Polypogon fugax, Alopecurus aequalis, Lolium multiflorum, Poa annua, Aegilops tataschii, Avena fatua, Alopecurus myosuroides, Bromus japonicus), broadleaf weeds (Eclipta prostrata, Amaranthus retroflexus, Rorippa indica, Myosoton aquaticum, Veronica didyma, Galium aparine, Solanum nigrum, Xanthium sibiricum, Conyza canadensis, Sesbania cannabina, Sagittaria trifolia), and Cyperus iria (Cyperus iria, Scirpus juncoides, Cyperus difformis, etc.) were sown in plastic pots (7 cm diameter) with nutrient soil and bottom holes. Crop seeds (including Oryza sativa subsp. indica, Oryza sativa subsp. japonica, Oryza sativa L. var. Glutinosa matsum, Triticum aestivum, Zea mays, Sorghum bicolor, Setaria italica, Glycine max, Gossypium hirsutum, Brassica napus, Arachis hypogaea) were sown in plastic pots (10 cm diameter) with nutrient soil and bottom holes. After sowing, the pots were placed in the growth chamber until the plants reached the 3-6 leaf stage for foliar spraying. Post-treatment, the materials were air-dried naturally and returned to the growth chamber. Results were assessed 14-21 days later.
(§2) • A: Fresh weight inhibition rate≥80% to 100%; • B: Fresh weight inhibition rate[…] to <80%; • C: Fresh weight inhibition rate≥40% to <60%; • D: Fresh weight inhibition rate≥20% to <40%; • E: Fresh weight inhibition rate<20%; • NT: Not tested.

Digitaria sanguinalis = conditions: Post-emergence test, rate 150 g a.i./hm^2, grade by fresh weight inhibition rate
Description: as §1, §2

Leptochloa chinensis = conditions: Post-emergence test, rate 150 g a.i./hm^2, grade by fresh weight inhibition rate
Description: as §1, §2

Cyperus iria = conditions: Post-emergence test, rate 150 g a.i./hm^2, grade by fresh weight inhibition rate
Description: as §1, §2

Echinochloa crusgalli = conditions: Post-emergence test, rate 150 g a.i./hm^2; grade by fresh weight inhibition rate
Description: as §1, §2

SMILES | Control efficacy grade, Eclipta prostrata (Eclipta prostrata) | Control efficacy grade, Digitaria sanguinalis (Digitaria sanguinalis) | Control efficacy grade, Leptochloa chinensis (Leptochloa chinensis) | Control efficacy grade, Cyperus iria (Cyperus iria) | Control efficacy grade, Echinochloa crusgalli (Echinochloa crusgalli) | pest or weed control at 150 g/ha (Eclipta prostrata; Eclipta prostrata, read-out: Control efficacy grade, Eclipta prostrata) | pest or weed control at 150 g/ha (Digitaria sanguinalis; Digitaria sanguinalis, read-out: Control efficacy grade, Digitaria sanguinalis) | pest or weed control at 150 g/ha (Leptochloa chinensis; Dinebra chinensis, read-out: Control efficacy grade, Leptochloa chinensis) | pest or weed control at 150 g/ha (Cyperus iria; Cyperus iria, read-out: Control efficacy grade, Cyperus iria)
C=C(C)CS(=O)(=O)c1c(S(C)(=O)=O)ccc(C(=O)Nc2nnc(C)o2)c1Cl [Compound 3-146] | A (Fresh weight inhibition rate≥80% to 100%) | B (Fresh weight inhibition rate≥260% to <80%) | A (Fresh weight inhibition rate≥80% to 100%) | A (Fresh weight inhibition rate≥80% to 100%) | – | – | – | – | –
Cc1nnc(NC(=O)c2ccc(S(C)(=O)=O)c(SC(C)C#N)c2Cl)o1 (stereo not drawn) [Compound 3-202] | – | B (Fresh weight inhibition rate≥260% to <80%) | A (Fresh weight inhibition rate≥80% to 100%) | B (Fresh weight inhibition rate≥260% to <80%) | A (Fresh weight inhibition rate≥80% to 100%) | – | – | – | –
CCc1nnc(NC(=O)c2ccc(S(C)(=O)=O)c(SCC(F)F)c2Cl)o1 [Compound 3-444] | – | B (Fresh weight inhibition rate≥260% to <80%) | A (Fresh weight inhibition rate≥80% to 100%) | – | A (Fresh weight inhibition rate≥80% to 100%) | – | – | – | –
Cc1nnc(NC(=O)c2ccc(S(C)(=O)=O)c(SCC(F)(F)C(F)(F)F)c2Cl)o1 [Compound 3-172] | A (Fresh weight inhibition rate≥80% to 100%) | A (Fresh weight inhibition rate≥80% to 100%) | A (Fresh weight inhibition rate≥80% to 100%) | A (Fresh weight inhibition rate≥80% to 100%) | – | – | – | – | –
CCCSc1c(S(C)(=O)=O)ccc(C(=O)Nc2nnc(C3CC3)o2)c1Cl [Compound 3-615] | A (Fresh weight inhibition rate≥80% to 100%) | A (Fresh weight inhibition rate≥80% to 100%) | A (Fresh weight inhibition rate≥80% to 100%) | A (Fresh weight inhibition rate≥80% to 100%) | – | – | – | – | –
CS(=O)(=O)c1ccc(C(=O)Nc2nnc(C3CC3)o2)c(Cl)c1[S+]([O-])C1CC1 (racemic) [Compound 3-652] | A (Fresh weight inhibition rate≥80% to 100%) | A (Fresh weight inhibition rate≥80% to 100%) | A (Fresh weight inhibition rate≥80% to 100%) | A (Fresh weight inhibition rate≥80% to 100%) | – | – | – | – | –
Cc1nnc(NC(=O)c2ccc(S(C)(=O)=O)c([S+]([O-])Cc3ccccc3)c2Cl)o1 (racemic) [Compound 3-68] | A (Fresh weight inhibition rate≥80% to 100%) | B (Fresh weight inhibition rate≥260% to <80%) | A (Fresh weight inhibition rate≥80% to 100%) | A (Fresh weight inhibition rate≥80% to 100%) | – | – | – | – | –
CCC(C)S(=O)(=O)c1c(S(C)(=O)=O)ccc(C(=O)Nc2nonc2C)c1Cl (racemic) [Compound 4-24] | A (Fresh weight inhibition rate≥80% to 100%) | A (Fresh weight inhibition rate≥80% to 100%) | A (Fresh weight inhibition rate≥80% to 100%) | A (Fresh weight inhibition rate≥80% to 100%) | – | – | – | – | –
CS(=O)(=O)c1ccc(C(=O)Nc2nnc(C3CC3)o2)c(Cl)c1[S+]([O-])C1CCCC1 (racemic) [Compound 3-662] | A (Fresh weight inhibition rate≥80% to 100%) | A (Fresh weight inhibition rate≥80% to 100%) | A (Fresh weight inhibition rate≥80% to 100%) | A (Fresh weight inhibition rate≥80% to 100%) | – | – | – | – | –
CCCSc1c(S(C)(=O)=O)ccc(C(=O)Nc2nonc2C)c1Cl [Compound 4-1, 2-chloro-N-(4-methyl-1,2,5-oxadiazol-3-yl)-4-(methylsulfonyl)-3-(propylthio)benzamide] | – | – | – | – | – | 80 to 100% | 80 to 100% | 80 to 100% | 80 to 100%
